This is an account of results in publication PMC9544090, “BioWF: A Naturally‐Fused, Di‐Domain Biocatalyst from Biotin Biosynthesis Displays an Unexpectedly Broad Substrate Scope” (Chembiochem, 2022).

Usually Kd stands for the free concentration of one partner at which half of the binding sites on the other are occupied at equilibrium, for simple one-to-one binding. A word on the Km: it is the concentration of substrate that gives half-maximal velocity. A word on the kcat: it is the number of substrate molecules converted per active site and unit of time at saturation.

In data set [1] the target is T1, CaBioWF (Corynebacterium amycolatum, UniProt E2MUP3).
T1 construct: full-length natural di-domain fusion; synthetic gene in pET-28a, E. coli BL21(DE3); His tag removed by TEV; homodimer by SEC
Briefly: UV-Vis titration, PLP ketoenamine peak at […] nm, hyperbolic fit. It counts as binding.

A further data set concerns O=C(O)CCCCCC(=O)O. Briefly: purified protein. As to conditions: BioW domain, CoASH 1 mM, ATP 1 mM, MgCl2 10 mM, pH 8, 30 °C.
Data set [2] deals with CaBioWF. The following applies: ATP 1 mM, CoASH 1 mM, MgCl2 5 mM, pH 8, 30 °C, 5 h; mutant mass 68567 Da printed, so tag probably kept.
Sequence of CaBioWF (DOC9544090_1 entry or part of it F192Y): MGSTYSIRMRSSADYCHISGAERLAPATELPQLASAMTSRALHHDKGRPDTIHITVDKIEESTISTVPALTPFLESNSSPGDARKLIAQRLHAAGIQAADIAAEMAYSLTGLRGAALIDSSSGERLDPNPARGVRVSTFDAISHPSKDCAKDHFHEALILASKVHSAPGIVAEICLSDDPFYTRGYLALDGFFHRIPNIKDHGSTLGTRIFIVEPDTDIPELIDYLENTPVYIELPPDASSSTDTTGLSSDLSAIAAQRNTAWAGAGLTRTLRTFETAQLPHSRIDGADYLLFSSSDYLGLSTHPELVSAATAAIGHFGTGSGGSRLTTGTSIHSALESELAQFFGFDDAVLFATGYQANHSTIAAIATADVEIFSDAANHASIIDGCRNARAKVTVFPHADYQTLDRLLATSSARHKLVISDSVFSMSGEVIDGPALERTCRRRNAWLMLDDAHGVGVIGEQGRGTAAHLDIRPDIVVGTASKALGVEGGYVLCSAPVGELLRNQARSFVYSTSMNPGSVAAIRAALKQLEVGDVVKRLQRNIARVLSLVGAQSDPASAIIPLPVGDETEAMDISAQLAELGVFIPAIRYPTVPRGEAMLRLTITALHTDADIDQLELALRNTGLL

Regarding `NCC(=O)O` [Gly], binding on CaBioWF [1] was put at a Kd of 16.1 ± 1.95 mM.
Same read-out and setting: as for `C[C@H](N)C(=O)O` [ʟ‐Ala], the figure is 1.83 ± 0.25 mM.
For “CaBioWF (Corynebacterium amycolatum SK46)”, in the data set on O=C(O)CCCCCC(=O)O, the Km was 58.6 ± 3 µM and the kcat amounted to 0.21 s⁻¹.
Turning to `O=C(O)CCCCCC(=O)O` [DC7, pimelic acid], the “HPLC of acyl-CoA product, 260 nm” value with CaBioWF [2] is reported as “acyl‐CoA product formation was only observed for the natural DC7 pimelic acid substrate”.
